17 compounds from patent publication US9249116B2, “Enzyme-activating compounds and compositions” (The Board of Trustees of the University of Illinois, priority 2012, dated 2016) can be followed below.

Data set [1] is described as follows: Liver microsome stability assay. In kind it is in vitro ADME. The conditions noted are these: rat liver microsomes, 10 μM, LC/MS. Here is the method: FIG. 4. Liver Microsome Stability Assay. Compounds (10 μM) incubated with liver microsomes for 3 h and quenched with MeCN containing internal standard, analyzed by LC/MS (280 nm). Next, the metabolic stability of the compounds was evaluated in rat liver microsomes. The compounds were evaluated for 3 hours at 10 μM, and the metabolites were observed by LC/MS.
(Liver microsomes are vesicles of endoplasmic reticulum, rich in cytochrome P450 enzymes.)

The subject of data set [2] is U-937 cells (human lymphoma). The data set can be described thus: 72 Hour IC50 cell death assay (sulforhodamine B). In kind it is cell-based. The conditions noted are these: read-out: U-937 72 h IC50 (μM), Table 1, U-937 cells, 72 h. Here is the method:
After the synthesis was complete, the biological activity of the compounds was evaluated.
U-937 human lymphoma cells were plated into the wells of 96 well plate at a density of 15,000 cells per well in 99 μL of RPMI 1640 growth media with 10% FBS and 1% pen-strep. To each well was added 1 μL of compound stock solutions in DMSO at varying concentrations such that the cells were treated with concentrations between 0 μM and 100 μM compound. Each concentration was tested in quintuplicate per plate. In each plate 5 wells received 20 μM doxorubicin as a positive death control and 5 wells received 1 μL of DMSO as a negative control.
After the 72 hour incubation period, the plates were analyzed using a Sulforhodamine B assay (Vichai and Kirtikara, Nat Protoc 2006, 1, 1112-1116). Specifically, to each well of the plate 25 μL of a 50% (w/v) solution of trichloroacetic acid in H2O was added and the plates were incubated for 4 hours at 4° C. The plates were then washed gently with water five times. The plates were allowed to air dry after which 100 μL of a 0.057% (w/v) Sulforhodamine B in a 1% (v/v) acetic acid solution was added to each well for 30 minutes at room temperature. The plates were gently washed 5 times with 1% (v/v) acetic acid and air dried. 200 μL of 10 mM Tris base (pH 10.4) was added to each well and the plates were placed on an orbital shaker for thirty minutes. The level of SRB was quantified fluorometrically at excitation and emission wavelengths 488 and 585 nm, respectively, on a Molecular Devices plate reader and the percent cell death calculated and normalized to the positive control (100% cell death) and the negative control (0% cell death). The percent cell death was averaged for each compound concentration and plotted as a function of compound concentration. The data were fit to a logistical dose response curve using Table curve 2D and the IC50 value was calculated. The experiment was repeated three times and the average of the calculated IC50 values was reported. The standard error of the mean (SEM) was determined and reported for the triplicate experiments.

The subject of a further data set is mice. The experiment in a line: Assessment of toxicity in vivo. To be noted: mice; scale 0 to 3, or time of death. An excerpt: The level of toxicity was rated on a scale of 0 (no observable adverse effect) to 3 (severe toxicity, almost fatal).

For the compound `C=CCc1cccc(/C=N/NC(=O)CN2CCN(C(=O)c3ccc(C#N)cc3)CC2)c1O` [Compound 5, N′-(3-allyl-2-hydroxybenzylidene)-2-(4-(4-cyanobenzoyl)piperazin-1-yl)acetohydrazide], the “RLM 3 h % Stability” value in data set [1] is given as 90 ± 4%. In addition, in data set [2], the IC50 (commonly the concentration that inhibits the measured activity by half) worked out at 13.1 ± 3.7 µM. Also, in the data set with mice, the “Mouse Toxicity” value is recorded as “death >72 h (greater than 72 hours post-treatment)”.

As for `C=CCc1cccc(/C=N/NC(=O)CN2CCN(Cc3ccc(F)cc3)CC2)c1O` [Compound 6, N′-(3-allyl-2-hydroxybenzylidene)-2-(4-(4-fluorobenzyl)piperazin-1-yl)acetohydrazide], the “RLM 3 h % Stability” value in data set [1] is recorded as 31 ± 1%. The IC50 in data set [2] is 11.1 ± 2.1 µM. Besides, the “Mouse Toxicity” value in the data set on mice was 3.

Regarding `C=CCc1cccc(/C=N/NC(=O)CN2CCN(C(=O)c3ccc(F)cc3)CC2)c1O` [Compound 7, N′-(3-allyl-2-hydroxybenzylidene)-2-(4-(4-fluorobenzoyl)piperazin-1-yl)acetohydrazide], the “RLM 3 h % Stability” value in data set [1] was found to be 86 ± 2%. Further, the IC50 in data set [2] came out at 10.2 ± 1.7 µM. Moreover, in the data set on mice, the “Mouse Toxicity” value is recorded as 2.

On to `CCCc1cccc(/C=N/NC(=O)CN2CCN(Cc3ccccc3)CC2)c1O` [Compound 10, 2-(4-benzylpiperazin-1-yl)-N′-(2-hydroxy-3-propylbenzylidene)acetohydrazide], for which the “RLM 3 h % Stability” value in data set [1] is listed as 30 ± 1%. The IC50 in data set [2] amounted to 9.6 ± 2.1 µM. The “Mouse Toxicity” value with mice is given as 2.

As to `CCCc1cccc(/C=N/NC(=O)CN2CCN(Cc3ccc(F)cc3)CC2)c1O` [Compound 15, 2-(4-(4-fluorobenzyl)piperazin-1-yl)-N′-(2-hydroxy-3-propylbenzylidene)acetohydrazide], the “RLM 3 h % Stability” value in data set [1] is recorded as 24 ± 2%. In addition, the IC50 in data set [2] is 10 ± 1.7 µM. In addition, the “Mouse Toxicity” value in the data set with mice is “death <24 h (the mice died either within 24 hours of treatment)”.

`O=C(CN1CCN(Cc2ccccc2)CC1)N/N=C/c1cc(F)ccc1O` [Compound 19, 2-(4-benzylpiperazin-1-yl)-N′-(5-fluoro-2-hydroxybenzylidene)acetohydrazide]: in data set [1], the “RLM 3 h % Stability” value amounted to 64 ± 4%. Also, the IC50 in data set [2] stood at 17 ± 1.4 µM. In the data set with mice, the “Mouse Toxicity” value was 3.

Consider `NS(=O)(=O)c1ccc(CN2CCN(CC(=O)N/N=C/c3cc(F)ccc3O)CC2)cc1` [Compound 20, 4-((4-(2-(2-(5-fluoro-2-hydroxybenzylidene)hydrazinyl)-2-oxoethyl)piperazin-1-yl)methyl)benzenesulfonamide], for which the “RLM 3 h % Stability” value in data set [1] came to 85 ± 6%. In addition, the IC50 in data set [2] worked out at 19.6 ± 3.8 µM. Also, the “Mouse Toxicity” value in the data set with mice was “death >72 h (greater than 72 hours post-treatment)”.

Turning to `N#Cc1ccc(CN2CCN(CC(=O)N/N=C/c3cc(F)ccc3O)CC2)cc1` [Compound 22, 2-(4-(4-cyanobenzyl)piperazin-1-yl)-N′-(5-fluoro-2-hydroxybenzylidene)acetohydrazide], the “RLM 3 h % Stability” value in data set [1] was found to be 79 ± 4%. In addition, in data set [2], the IC50 was determined as 13.5 ± 1 µM. Also, in the data set with mice, the “Mouse Toxicity” value is on record as “death <24 h (the mice died either within 24 hours of treatment)”.

As to `O=C(CN1CCN(Cc2ccc(F)cc2)CC1)N/N=C/c1cc(F)ccc1O` [Compound 24, N′-(5-fluoro-2-hydroxybenzylidene)-2-(4-(4-fluorobenzyl)piperazin-1-yl)acetohydrazide], the “RLM 3 h % Stability” value in data set [1] is 62 ± 2%. Besides, in data set [2], the IC50 was 11.7 ± 1.4 µM. In the data set with mice, the “Mouse Toxicity” value was determined as 3.

On to `O=C(CN1CCN(Cc2ccc(C(F)(F)F)cc2)CC1)N/N=C/c1cc(F)ccc1O` [Compound 26, N′-(5-fluoro-2-hydroxybenzylidene)-2-(4-(4-(trifluoromethyl)benzyl)piperazin-1-yl)acetohydrazide], for which the “RLM 3 h % Stability” value in data set [1] came out at 30 ± 5%. Further, the IC50 in data set [2] was found to be 4.7 ± 0.3 µM. Also, the “Mouse Toxicity” value in the data set with mice worked out at 3.

For the compound `O=C(CN1CCN(C(=O)c2ccc(C(F)(F)F)cc2)CC1)N/N=C/c1cc(F)ccc1O` [Compound 27, N′-(5-fluoro-2-hydroxybenzylidene)-2-(4-(4-(trifluoromethyl)benzoyl)piperazin-1-yl)acetohydrazide], the “RLM 3 h % Stability” value in data set [1] is 87 ± 3%. Also, in data set [2], the IC50 turned out to be 8.7 ± 0.5 µM. Further, the “Mouse Toxicity” value with mice came to 2.

For the compound `C=CCc1cc(F)cc(/C=N/NC(=O)CN2CCN(Cc3ccccc3)CC2)c1O` [Compound 28, N′-(3-allyl-5-fluoro-2-hydroxybenzylidene)-2-(4-benzylpiperazin-1-yl)acetohydrazide], in data set [1], the “RLM 3 h % Stability” value was determined as 56 ± 1%. Further, in data set [2], the IC50 came out at 9.5 ± 0.9 µM. In addition, in the data set on mice, the “Mouse Toxicity” value is listed as “death <24 h (the mice died either within 24 hours of treatment)”.

Consider `C=CCc1cc(F)cc(/C=N/NC(=O)CN2CCN(C(=O)c3ccccc3)CC2)c1O` [Compound 30, N′-(3-allyl-5-fluoro-2-hydroxybenzylidene)-2-(4-benzoylpiperazin-1-yl)acetohydrazide], for which the “RLM 3 h % Stability” value in data set [1] was 93 ± 7%. The IC50 in data set [2] is 8.6 ± 2 µM. Also, the “Mouse Toxicity” value with mice was 2.

Consider `C=CCc1cc(F)cc(/C=N/NC(=O)CN2CCN(C(=O)c3ccc(F)cc3)CC2)c1O` [Compound 34, N′-(3-allyl-5-fluoro-2-hydroxybenzylidene)-2-(4-(4-fluorobenzoyl)piperazin-1-yl)acetohydrazide], for which the “RLM 3 h % Stability” value in data set [1] is given as 92 ± 3%. Moreover, in data set [2], the IC50 came out at 8.5 ± 1.4 µM. In addition, the “Mouse Toxicity” value with mice is recorded as 3.

For the compound `CCCc1cc(F)cc(/C=N/NC(=O)CN2CCN(Cc3ccccc3)CC2)c1O` [Compound 37, 2-(4-benzylpiperazin-1-yl)-N′-(5-fluoro-2-hydroxy-3-propylbenzylidene)acetohydrazide], the “RLM 3 h % Stability” value in data set [1] came to 49 ± 6%. The half-inhibitory concentration (IC50) in data set [2] stood at 8.9 ± 1.2 µM. Further, the “Mouse Toxicity” value in the data set with mice is recorded as “death <24 h (the mice died either within 24 hours of treatment)”.

With `CCCc1cc(F)cc(/C=N/NC(=O)CN2CCN(C(=O)c3ccccc3)CC2)c1O` [Compound 39, 2-(4-benzoylpiperazin-1-yl)-N′-(5-fluoro-2-hydroxy-3-propylbenzylidene)acetohydrazide], in data set [1], the “RLM 3 h % Stability” value is 86 ± 5%. Besides, the IC50 in data set [2] is 12.3 ± 1 µM. Also, the “Mouse Toxicity” value in the data set with mice is listed as 2.

Take `CCCc1cc(F)cc(/C=N/NC(=O)CN2CCN(C(=O)c3ccc(F)cc3)CC2)c1O` [Compound 43, N′-(5-fluoro-2-hydroxy-3-propylbenzylidene)-2-(4-(4-fluorobenzoyl)piperazin-1-yl)acetohydrazide]: in data set [1], the “RLM 3 h % Stability” value turned out to be 67 ± 3%. Also, the IC50 in data set [2] is 7.5 ± 1.4 µM. Moreover, in the data set with mice, the “Mouse Toxicity” value came out at 3.
